In PubChem BioAssay AID2060889 (Molecular Pharmacology Branch, DTP, NCI, 2025):

System: LG0567-F671-PDC complex spheroids viability
Experiment: Anticancer human tumor LG0567-F671-PDC patient-derived lung adenocarcinoma cell line growth inhibition [RAS]
Settings: for viability, T/C: stronger effect = lower value
How it was run: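 Agents were tested in combination matrices in half-log decrements from a top concentration at or near clinical Cmax (10 microM if undetermined). Targets were multi-cell spheroids of tumour lines plus HUVEC and MSC stromal cells.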

[1] = curve of first compound, second compound 0.000949 µM
[2] = curve of first compound, second compound 0.003 µM
[3] = curve of first compound, second compound 0.00949 µM
[4] = curve of first compound, second compound 0.03 µM
[5] = curve of first compound, second compound 0.0949 µM
[6] = curve of first compound, second compound 0.3 µM
[7] = second compound 0.000949 µM, first compound 0.0316 µM
[8] = second compound 0.000949 µM, first compound 0.1 µM
[9] = second compound 0.000949 µM, first compound 0.316 µM
[10] = second compound 0.000949 µM, first compound 1 µM
[11] = second compound 0.003 µM, first compound 0.0316 µM
[12] = second compound 0.003 µM, first compound 0.1 µM
[13] = second compound 0.003 µM, first compound 0.316 µM
[14] = second compound 0.003 µM, first compound 1 µM
[15] = second compound 0.00949 µM, first compound 0.0316 µM
[16] = second compound 0.00949 µM, first compound 0.1 µM
[17] = second compound 0.00949 µM, first compound 0.316 µM
[18] = second compound 0.00949 µM, first compound 1 µM
[19] = second compound 0.03 µM, first compound 0.0316 µM
[20] = second compound 0.03 µM, first compound 0.1 µM
[21] = second compound 0.03 µM, first compound 0.316 µM
[22] = second compound 0.03 µM, first compound 1 µM
[23] = second compound 0.0949 µM, first compound 0.0316 µM
[24] = second compound 0.0949 µM, first compound 0.1 µM
[25] = second compound 0.0949 µM, first compound 0.316 µM
[26] = second compound 0.0949 µM, first compound 1 µM
[27] = second compound 0.3 µM, first compound 0.0316 µM
[28] = second compound 0.3 µM, first compound 0.1 µM
[29] = second compound 0.3 µM, first compound 0.316 µM
[30] = second compound 0.3 µM, first compound 1 µM
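Note: spheroids exposed to compound for seven days before readout.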
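Throughout, for IC50: luminescence signal used as a proxy for viable cells.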

In the case of C=CC(=O)Nc1cc(Nc2nccc(-c3cn(C)c4ccccc34)n2)c(OC)cc1N(C)CCN(C)C + CCn1c(-c2cccnc2C(C)OC)c2c3cc(ccc31)N1CCOC(CC(NC(=O)C(C(C)C)N(C)C(=O)C3(F)CCN(C(=O)C#CC(C)(C)N(C)C)CC3)C(=O)N3CCCC(N3)C(=O)OCC(C)(C)C2)C1, the IC50 [1] is reported as < 3.16 nM, the IC50 [2] is reported as < 3.16 nM and the IC50 [3] is reported as < 3.16 nM. The IC50 [4] was < 3.16 nM, the IC50 [5] was < 3.16 nM and the IC50 [6] was < 3.16 nM. The viability, T/C (second compound 0.000949 µM, first compound 0.00316 µM) was 15.6%, the viability, T/C (second compound 0.000949 µM, first compound 0.01 µM) was 14% and the viability, T/C [7] was 12.5%. It also gave a viability, T/C [8] of 9.48%, a viability, T/C [9] of 14.1% and a viability, T/C [10] of 3.07%. For the same compound, the viability, T/C (second compound 0.003 µM, first compound 0.00316 µM) was 13.4%, the viability, T/C (second compound 0.003 µM, first compound 0.01 µM) was 13.9% and the viability, T/C [11] was 13%. For the same compound, the viability, T/C [12] was 9.78%, the viability, T/C [13] was 6.6% and the viability, T/C [14] was 2.75%. The viability, T/C (second compound 0.00949 µM, first compound 0.00316 µM) was 20%, the viability, T/C (second compound 0.00949 µM, first compound 0.01 µM) was 12.7% and the viability, T/C [15] was 11.6%. The viability, T/C [16] was 9.64%, the viability, T/C [17] was 6.15% and the viability, T/C [18] was 7.2%. The viability, T/C (second compound 0.03 µM, first compound 0.00316 µM) was 12%, the viability, T/C (second compound 0.03 µM, first compound 0.01 µM) was 11.5% and the viability, T/C [19] was 11.2%. The viability, T/C [20] was 7.87%, the viability, T/C [21] was 5.56% and the viability, T/C [22] was 3.05%. For the same compound, the viability, T/C (second compound 0.0949 µM, first compound 0.00316 µM) was 10.1%, the viability, T/C (second compound 0.0949 µM, first compound 0.01 µM) was 10.9% and the viability, T/C [23] was 10.2%. It also gave a viability, T/C [24] of 9.54%, a viability, T/C [25] of 5.79% and a viability, T/C [26] of 2.57%. For the same compound, the viability, T/C (second compound 0.3 µM, first compound 0.00316 µM) was 12.4%, the viability, T/C (second compound 0.3 µM, first compound 0.01 µM) was 7.87% and the viability, T/C [27] was 7.46%. It also gave a viability, T/C [28] of 5.58%, a viability, T/C [29] of 3.92% and a viability, T/C [30] of 2.38%.

In the case of NC1c2ccccc2OC12CCN(c1cnc3c(N4CCCc5ncccc54)n[nH]c3n1)CC2 (stereo not drawn) + CCn1c(-c2cc(N3CCN(C)CC3)cnc2C(C)OC)c2c3cc(ccc31)-c1csc(n1)CC(NC(=O)C1CC1C)C(=O)N1CCCC(N1)C(=O)OCC(C)(C)C2, the IC50 [1] is reported as < 31.6 nM, the IC50 [2] is reported as < 31.6 nM and the IC50 [3] is reported as < 31.6 nM. For the same compound, the IC50 [4] was < 31.6 nM, the IC50 [5] was < 31.6 nM and the IC50 [6] was < 31.6 nM. The viability, T/C [7] was 6.06%, the viability, T/C [8] was 4.3% and the viability, T/C [9] was 2.12%. It also gave a viability, T/C [10] of 1.95%, a viability, T/C (second compound 0.000949 µM, first compound 3.16 µM) of 1.97% and a viability, T/C (second compound 0.000949 µM, first compound 10 µM) of 1.51%. For the same compound, the viability, T/C [11] was 3.74%, the viability, T/C [12] was 2.3% and the viability, T/C [13] was 1.62%. The viability, T/C [14] was 1.58%, the viability, T/C (second compound 0.003 µM, first compound 3.16 µM) was 1.33% and the viability, T/C (second compound 0.003 µM, first compound 10 µM) was 1.84%. The viability, T/C [15] was 2.32%, the viability, T/C [16] was 1.6% and the viability, T/C [17] was 1.26%. It also gave a viability, T/C [18] of 0.84%, a viability, T/C (second compound 0.00949 µM, first compound 3.16 µM) of 1.05% and a viability, T/C (second compound 0.00949 µM, first compound 10 µM) of 1.1%. It also gave a viability, T/C [19] of 1.64%, a viability, T/C [20] of 1.27% and a viability, T/C [21] of 1.19%. For the same compound, the viability, T/C [22] was 0.92%, the viability, T/C (second compound 0.03 µM, first compound 3.16 µM) was 1.02% and the viability, T/C (second compound 0.03 µM, first compound 10 µM) was 0.81%. For the same compound, the viability, T/C [23] was 1.33%, the viability, T/C [24] was 1.55% and the viability, T/C [25] was 0.92%. For the same compound, the viability, T/C [26] was 0.69%, the viability, T/C (second compound 0.0949 µM, first compound 3.16 µM) was 0.98% and the viability, T/C (second compound 0.0949 µM, first compound 10 µM) was 0.76%. It also gave a viability, T/C [27] of 1.37%, a viability, T/C [28] of 1.39% and a viability, T/C [29] of 0.9%. The viability, T/C [30] was 0.72%, the viability, T/C (second compound 0.3 µM, first compound 3.16 µM) was 0.85% and the viability, T/C (second compound 0.3 µM, first compound 10 µM) was 0.72%.

CC(=O)OC12COC1CC(O)C1(C)C(=O)C(O)C3=C(C)C(OC(=O)C(O)C(NC(=O)OC(C)(C)C)c4ccccc4)CC(O)(C(OC(=O)c4ccccc4)C21)C3(C)C (stereo not drawn) was tested, and the viability, T/C (compound 0.0316 µM) was 51.5% [middle of 4 runs], the viability, T/C (compound 0.1 µM) was 44.6% [middle of 4 runs] and the viability, T/C (compound 0.316 µM) was 58.4% [middle of 4 runs]. For the same compound, the viability, T/C (compound 1 µM) was 62.5% [middle of 4 runs], the viability, T/C (compound 3.16 µM) was 70.3% [middle of 4 runs] and the viability, T/C (compound 10 µM) was 63.5% [middle of 4 runs]. The IC50 (curve of compound) was < 31.6 nM.

CC(=O)OC12COC1CC(O)C1(C)C(=O)C(O)C3=C(C)C(OC(=O)C(O)C(NC(=O)OC(C)(C)C)c4ccccc4)CC(O)(C(OC(=O)c4ccccc4)C21)C3(C)C (stereo not drawn) + C#Cc1c(F)ccc2cc(O)cc(-c3ncc4c(N5CC6CCC(C5)N6)nc(OCC56CCCN5CC(F)C6)nc4c3F)c12 was tested, and the IC50 (curve of first compound, second compound 0.0316 µM) was < 31.6 nM, the IC50 (curve of first compound, second compound 0.1 µM) was < 31.6 nM and the IC50 (curve of first compound, second compound 0.316 µM) was < 31.6 nM. For the same compound, the IC50 (curve of first compound, second compound 1 µM) was < 31.6 nM, the IC50 (curve of first compound, second compound 3.16 µM) was < 31.6 nM and the IC50 (curve of first compound, second compound 10 µM) was < 31.6 nM. The viability, T/C (second compound 0.0316 µM, first compound 0.0316 µM) was 44.2%, the viability, T/C (second compound 0.0316 µM, first compound 0.1 µM) was 43% and the viability, T/C (second compound 0.0316 µM, first compound 0.316 µM) was 53.7%. For the same compound, the viability, T/C (second compound 0.0316 µM, first compound 1 µM) was 60%, the viability, T/C (second compound 0.0316 µM, first compound 3.16 µM) was 66.5% and the viability, T/C (second compound 0.0316 µM, first compound 10 µM) was 65.3%. The viability, T/C (second compound 0.1 µM, first compound 0.0316 µM) was 45.7%, the viability, T/C (second compound 0.1 µM, first compound 0.1 µM) was 40.1% and the viability, T/C (second compound 0.1 µM, first compound 0.316 µM) was 53.2%. For the same compound, the viability, T/C (second compound 0.1 µM, first compound 1 µM) was 56.7%, the viability, T/C (second compound 0.1 µM, first compound 3.16 µM) was 64.5% and the viability, T/C (second compound 0.1 µM, first compound 10 µM) was 59.4%. It also gave a viability, T/C (second compound 0.316 µM, first compound 0.0316 µM) of 34.9%, a viability, T/C (second compound 0.316 µM, first compound 0.1 µM) of 37.8% and a viability, T/C (second compound 0.316 µM, first compound 0.316 µM) of 45.4%. It also gave a viability, T/C (second compound 0.316 µM, first compound 1 µM) of 49.1%, a viability, T/C (second compound 0.316 µM, first compound 3.16 µM) of 60% and a viability, T/C (second compound 0.316 µM, first compound 10 µM) of 43.8%. The viability, T/C (second compound 1 µM, first compound 0.0316 µM) was 26.7%, the viability, T/C (second compound 1 µM, first compound 0.1 µM) was 24.8% and the viability, T/C (second compound 1 µM, first compound 0.316 µM) was 31.1%. For the same compound, the viability, T/C (second compound 1 µM, first compound 1 µM) was 37%, the viability, T/C (second compound 1 µM, first compound 3.16 µM) was 43.8% and the viability, T/C (second compound 1 µM, first compound 10 µM) was 30.8%. It also gave a viability, T/C (second compound 3.16 µM, first compound 0.0316 µM) of 16.1%, a viability, T/C (second compound 3.16 µM, first compound 0.1 µM) of 16.4% and a viability, T/C (second compound 3.16 µM, first compound 0.316 µM) of 19.9%. The viability, T/C (second compound 3.16 µM, first compound 1 µM) was 20.5%, the viability, T/C (second compound 3.16 µM, first compound 3.16 µM) was 23.9% and the viability, T/C (second compound 3.16 µM, first compound 10 µM) was 15.2%. For the same compound, the viability, T/C (second compound 10 µM, first compound 0.0316 µM) was 9.08%, the viability, T/C (second compound 10 µM, first compound 0.1 µM) was 7.93% and the viability, T/C (second compound 10 µM, first compound 0.316 µM) was 9.23%. The viability, T/C (second compound 10 µM, first compound 1 µM) was 8.41%, the viability, T/C (second compound 10 µM, first compound 3.16 µM) was 9.25% and the viability, T/C (second compound 10 µM, first compound 10 µM) was 5.64%.
